In the assay the test system is IFNα-induced STAT phosphorylation (pSTAT5) in human whole blood. Put plainly: IFNα-Induced STAT Phosphorylation in Human Whole Blood. It is filed as cell-based. The following applies: 1 h incubation with compound, 1000 U/mL recombinant human IFNα A/D for 15 min, pSTAT5 in CD3 positive population, read-out: IFNα-Induced Stat Phosph. (IC50).

Where two headings read alike, the source gives them in different places.

With `[2H]C([2H])([2H])NC(=O)c1nnc(Nc2ccc(C(F)F)cn2)cc1Nc1ncccc1S(C)(=O)=O` [Example 172, 6-((5-(difluoromethyl)pyridin-2-yl)amino)-N-(methyl-d3)-4-((3-(methylsulfonyl)pyridin-2-yl)amino)pyridazine-3-carboxamide], the IC50 (Homo sapiens) is 18 nM. Still for that read-out and setting: the figure for `[2H]C([2H])([2H])NC(=O)c1nnc(NC(=O)C2CC2)cc1Nc1ncccc1S(C)(=O)=O` [Example 159, 6-(cyclopropanecarboxamido)-N-trideuteromethyl-4-((3-(methylsulfonyl)pyridin-2-yl)amino)pyridazine-3-carboxamide] is 12 nM. In the case of `CNC(=O)c1nnc(Nc2ccnc(OC)n2)cc1Nc1ncccc1S(C)(=O)=O` [Example 21], the IC50 came to 37 nM. On the same count and under the same terms, under `CNC(=O)c1nnc(Nc2ccc(OC)nn2)cc1Nc1nc(F)ccc1S(C)(=O)=O` [Example 181] stands 550 nM; under `CCNC(=O)Nc1cc(Nc2nc(C)ccc2S(C)(=O)=O)c(C(=O)NC)nn1` [Example 191], 66 nM; under `CNC(=O)c1nnc(Nc2ccc(C(C)(C)NC(C)=O)cn2)cc1Nc1ncccc1S(C)(=O)=O` [Example 25], 15 nM. The same measure, in the same setting: the figure for `CNC(=O)c1nnc(NC(=O)[C@@H]2C[C@@H]2C)cc1Nc1ncccc1S(C)(=O)=O` [Example 48] is 40 nM. Still for that read-out and setting: the figure for `CNC(=O)c1cnc(Nc2cc(C#N)c(C(F)(F)F)cn2)cc1Nc1ncccc1S(C)(=O)=O` [Example 232] is 131 nM. For `[2H]C([2H])([2H])NC(=O)c1nnc(NC(=O)[C@@H]2CC23CC3)cc1Nc1ncccc1S(C)(=O)=O` [Example 252, (R)—N-(methyl-d3)-4-((3-(methylsulfonyl)pyridin-2-yl)amino)-6-(spiro[2.2]pentane-1-carboxamido)pyridazine-3-carboxamide], the IC50 (Homo sapiens) stood at 53 nM. Take `CNC(=O)c1nnc(NC(=O)NC(C)(C)C)cc1Nc1ncccc1S(C)(=O)=O` [Example 122]: the IC50 stood at 156 nM.

As to `CNC(=O)c1nnc(Nc2ccc(-c3ccccc3)nn2)cc1Nc1ncccc1S(C)(=O)=O` [Example 106], the IC50 was found to be 124 nM. In the case of `CCC(=O)Nc1cc(Nc2ncccc2S(C)(=O)=O)c(C(=O)NC)cn1` [Example 235], the half-maximal inhibitory concentration (IC50) came to 144 nM. For `CNC(=O)c1nnc(Nc2ccc(N3CCOCC3)cn2)cc1Nc1ncccc1S(C)(=O)=O` [Example 81], the half-inhibitory concentration (IC50) is 3 nM. On to `[2H]C([2H])([2H])NC(=O)c1nnc(Nc2ccc(C(C)(C)O)cn2)cc1Nc1ncccc1S(C)(=O)=O` [Example 13, 6-((5-(2-hydroxypropan-2-yl)pyridin-2-yl)amino)-N-(methyl-d3)-4-((3-(methylsulfonyl)pyridin-2-yl)amino)pyridazine-3-carboxamide], for which the IC50 (Homo sapiens) came to 2 nM. With `CNC(=O)c1nnc(Nc2ccc(N3CC(C)OC(C)C3)cn2)cc1Nc1ncccc1S(C)(=O)=O` (stereo not shown) [Example 100], the IC50 was 15 nM. The same measure, in the same setting: the figure for `CNC(=O)c1nnc(NC(=O)C2CC2(F)F)cc1Nc1ncccc1S(C)(=O)=O` (stereo not shown) [Example 45] is 34 nM. On the same count and under the same terms, under `CNC(=O)c1nnc(Nc2cc(F)ccn2)cc1Nc1ncccc1S(C)(=O)=O` [Example 4] stands 32 nM; under `CNC(=O)c1nnc(Nc2ccc(N(C)C)nn2)cc1Nc1ncccc1S(C)(=O)=O` [Example 38], 18 nM; under `CNC(=O)c1nnc(Nc2cnc(OC)cn2)cc1Nc1ncccc1S(C)(=O)=O` [Example 80], 57 nM. Turning to `CNC(=O)c1nnc(Nc2cnn(C)n2)cc1Nc1ncccc1S(C)(=O)=O` [Example 51], the IC50 was determined as 29 nM.

In the case of `[2H]C([2H])([2H])NC(=O)c1nnc(Nc2cccnn2)cc1Nc1ncccc1S(C)(=O)=O` [Example 251, N-(methyl-d3)-4-((3-(methylsulfonyl)pyridin-2-yl)amino)-6-(pyridazin-3-ylamino)pyridazine-3-carboxamide], the IC50 (Homo sapiens) was 7 nM. Same read-out and setting: under `CCNC(=O)c1nnc(Nc2ccc(C(C)(C)O)cn2)cc1Nc1ncccc1S(C)(=O)=O` [Example 211, N-ethyl-6-((5-(2-hydroxypropan-2-yl)pyridin-2-yl)amino)-4-((3-(methylsulfonyl)pyridin-2-yl)amino)pyridazine-3-carboxamide] stands 90 nM.

As for `[2H]C([2H])([2H])NC(=O)c1nnc(NC(=O)[C@H]2CC23CC3)cc1Nc1ncccc1S(C)(=O)=O` [Example 253, (S)—N-(methyl-d3)-4-((3-(methylsulfonyl)pyridin-2-yl)amino)-6-(spiro[2.2]pentane-1-carboxamido)pyridazine-3-carboxamide], the IC50 amounted to 47 nM. As for `CNC(=O)c1nnc(Nc2cc(C)nc(C3CC3)n2)cc1Nc1ncccc1S(C)(=O)=O` [Example 61], the IC50 was 18 nM. As to `[2H]C([2H])([2H])NC(=O)c1nnc(Nc2cc(C)nc(C)n2)cc1Nc1nc(F)ccc1S(C)(=O)=O` [Example 178, 6-((2,6-dimethylpyrimidin-4-yl)amino)-4-((6-fluoro-3-(methylsulfonyl)pyridin-2-yl)amino)-N-(methyl-d3)pyridazine-3-carboxamide], the IC50 (Homo sapiens) was determined as 474 nM. Take `CNC(=O)c1nnc(Nc2cc(C#N)n(C)n2)cc1Nc1ncccc1S(C)(=O)=O` [Example 12]: the IC50 worked out at 38 nM.

Take `CNC(=O)c1cnc(Nc2cc(C)c(F)cn2)cc1Nc1ncccc1S(C)(=O)=O` [Example 218]: the IC50 is 34 nM. Still for that read-out and setting: the figure for `CNC(=O)c1nnc(Nc2ccc(C3CC3)nn2)cc1Nc1ncccc1S(C)(=O)=O` [Example 15] is 13 nM; for `CNC(=O)c1nnc(Nc2ccc(C)nn2)cc1Nc1ncccc1S(C)(=O)=O` [Example 85] it is 11 nM. As to `[2H]C([2H])([2H])NC(=O)c1nnc(NC(=O)C2CC2(Cl)Cl)cc1Nc1ncccc1S(C)(=O)=O` (stereo not shown) [Example 174, 6-(2,2-dichlorocyclopropane-1-carboxamido)-N-(methyl-d3)-4-((3-(methylsulfonyl)pyridin-2-yl)amino)pyridazine-3-carboxamide], the IC50 (Homo sapiens) is 1810 nM. Take `CNC(=O)c1nnc(Nc2ccn(CC(F)(F)F)n2)cc1Nc1ncccc1S(C)(=O)=O` [Example 26]: the half-maximal inhibitory concentration (IC50) came to 49 nM. The same measure, in the same setting: the figure for `CNC(=O)c1nnc(NC(=O)CCOC)cc1Nc1ncccc1S(C)(=O)=O` [Example 118] is 131 nM; for `CNC(=O)c1cnc(Nc2cc(C)c(C#N)cn2)cc1Nc1ncccc1S(C)(=O)=O` [Example 233] it is 61 nM; for `CNC(=O)c1nnc(Nc2ccc(C(C)(C)OC(=O)CN)cn2)cc1Nc1ncccc1S(C)(=O)=O` [Example 67] it is 3580 nM. Regarding `[2H]C([2H])([2H])NC(=O)c1nnc(Nc2ccc(OC(F)F)nn2)cc1Nc1ncccc1S(C)(=O)=O` [Example 246, 6-((6-(difluoromethoxy)pyridazin-3-yl)amino)-N-(methyl-d3)-4-((3-(methylsulfonyl)pyridin-2-yl)amino)pyridazine-3-carboxamide], the IC50 (Homo sapiens) worked out at 34 nM. Same read-out and setting: the figure for `[2H]C([2H])([2H])NC(=O)c1nnc(Nc2ccc(C(C)(C)NC(C)C)cn2)cc1Nc1ncccc1S(C)(=O)=O` [Example 169, 6-((5-(2-(isopropylamino)propan-2-yl)pyridin-2-yl)amino)-N-(methyl-d3)-4-((3-(methylsulfonyl)pyridin-2-yl)amino)pyridazine-3-carboxamide] is 8 nM. Take `CNC(=O)c1nnc(Nc2ccc(-n3cccc(C(F)(F)F)c3=O)cn2)cc1Nc1ncccc1S(C)(=O)=O` [Example 92]: the IC50 was 13 nM.

As usually defined, the IC50 is the concentration that gives 50% inhibition.

For the origin of these results see US12365667B2, “Sulfone pyridine alkyl amide-substituted heteroaryl compounds” (BRISTOL-MYERS SQUIBB COMPANY, priority 2017, dated 2025).
